Reference: patent publication US6884821B1, “Carboxylic acid derivatives and drugs containing the same” (Eisai Co., Ltd., priority 1999, dated 2005)
Where two headings read alike, the source gives them in different places.

Columns and labels:
[1] = molecular target: T1, human PPARβ (NUC-1) (Homo sapiens, UniProt Q03181); assay: Measurement of transcriptional activity (GAL4-PPAR LBD chimera, PLAP reporter, CV-1 cells); assay type: cell-based
T1 construct: human PPAR 167-468 (PPARα), 138-440 (NUC-1) and 174-475 (PPARY) amino acid regions; expressed in transfected cells; host or cells: CV-1 (ATCC CCL-70D)
T1 sequence (Q03181 138-440): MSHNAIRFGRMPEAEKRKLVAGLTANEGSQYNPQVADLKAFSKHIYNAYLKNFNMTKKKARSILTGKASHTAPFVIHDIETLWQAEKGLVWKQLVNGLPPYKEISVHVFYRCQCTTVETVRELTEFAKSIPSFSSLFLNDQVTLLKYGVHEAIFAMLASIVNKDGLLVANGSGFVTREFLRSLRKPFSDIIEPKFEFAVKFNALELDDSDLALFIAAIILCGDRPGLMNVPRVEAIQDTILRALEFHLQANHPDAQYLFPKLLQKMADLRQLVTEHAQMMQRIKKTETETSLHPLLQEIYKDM
Experimental: (§1) Measurement of Transcriptional Activity
(§2) As the reporter gene, PLAP (Placental Alkaline Phosphatase) was used, and this was ligated downstream of a TK promoter containing a 5-copy GAL4 DNA binding element to construct a vector. As host cells, CV-1 (ATCC CCL-70D) was used. That is, CV-1 cells were spread at a density of 5×10^5 cells on a 35-mm dish and cultured in 10% FCS/DMEM for 24 hours, and using FuGENE 6 transfection reagent, the cells were co-transfected with the GAL4-PPAR LBD expression vector and GAL4 DBD-TK-PLAP expression vector. 24 hours after this transfection, the cells were spread again on a 96-well plate at a density of 1×10^4/well and further cultured for 24 hours. After 24 hours, the medium was exchanged with DMEM containing 10% FCS, which was previously treated at 65° C. for inactivating intrinsic alkaline phosphatase, and a test compound was added at an arbitrary concentration. […] The […] was determined after adding 50 μl assay buffer and 50 μl chemoluminescence substrate to 10 μl culture supernatant and incubating the mixture at room temperature for 1 hour.

[2] = molecular target: T2, human PPARα (Homo sapiens, UniProt Q07869); assay: as above; assay type: cell-based
T2 construct: human PPAR 167-468 (PPARα), 138-440 (NUC-1) and 174-475 (PPARY) amino acid regions; expressed in transfected cells; host or cells: CV-1 (ATCC CCL-70D)
T2 sequence (Q07869 167-468): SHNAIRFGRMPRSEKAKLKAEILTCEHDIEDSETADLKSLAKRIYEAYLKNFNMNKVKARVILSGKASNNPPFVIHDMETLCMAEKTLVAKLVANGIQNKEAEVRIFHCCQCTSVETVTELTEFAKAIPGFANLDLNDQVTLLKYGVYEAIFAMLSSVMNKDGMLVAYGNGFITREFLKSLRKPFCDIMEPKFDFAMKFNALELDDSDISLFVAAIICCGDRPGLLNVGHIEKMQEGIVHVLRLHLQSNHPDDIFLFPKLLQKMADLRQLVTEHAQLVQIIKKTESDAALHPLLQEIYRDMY
Experimental: as §1, §2

[3] = molecular target: T3, human PPARγ (Homo sapiens, UniProt P37231); assay: as above; assay type: cell-based; conditions: PLAP activity 24 hours after addition of the compound, read-out: Transcriptional activities EC50 PRAR γ
T3 construct: human PPAR 167-468 (PPARα), 138-440 (NUC-1) and 174-475 (PPARY) amino acid regions; expressed in transfected cells; host or cells: CV-1 (ATCC CCL-70D)
T3 sequence (P37231 204-505): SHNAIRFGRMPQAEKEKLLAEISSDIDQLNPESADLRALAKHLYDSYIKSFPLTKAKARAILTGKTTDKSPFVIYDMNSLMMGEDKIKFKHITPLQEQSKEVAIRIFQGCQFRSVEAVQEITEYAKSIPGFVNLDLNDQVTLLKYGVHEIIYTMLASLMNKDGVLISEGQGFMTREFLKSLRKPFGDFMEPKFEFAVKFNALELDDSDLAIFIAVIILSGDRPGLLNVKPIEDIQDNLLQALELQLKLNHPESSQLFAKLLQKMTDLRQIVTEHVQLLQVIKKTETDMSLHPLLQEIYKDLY
Experimental: as §1, §2

[4] = test system: male db/db mice; assay: Measurement of blood sugar reduction, blood triglyceride reduction and blood free fatty acid reduction in db/db mice; conditions: in vivo db/db mice, day 9 after administration, oral once a day
Experimental: Measurement of Blood Sugar Reduction, Blood Triglyceride Reduction and Blood Free Fatty Acid Reduction
Blood, was collected through a tail vein after the mice were fasted for 1 hour, before administration, and on Day 4 and Day 9 after administration, respectively. On Day 10, an oral glucose loading test was conducted; in this test, the mice were fasted overnight from the previous day, and in the next morning, 2 g/kg glucose was given to the mice. Plasma glucose, triglycerides (TG), free fatty acid (NEFA) were measured by using commercial kits, that is, Glucose C-II Test Wako (trade name) (Wako Pure Chemical Industries, Ltd., Tokyo), Deteminer L TG II (trade name) (Kyowa Medex, Tokyo) and NEFA C-Test Wako (Wako Pure Chemical Industries, Ltd., Tokyo), respectively.

[5] = CV-1 cells, GAL4-PPAR LBD chimera, PLAP activity 24 hours after addition of the compound, read-out: Transcriptional activities EC50 PRAR β
[6] = CV-1 cells, GAL4-PPAR LBD chimera, PLAP activity 24 hours after addition of the compound, read-out: Transcriptional activities EC50 PRAR α

| SMILES | EC50 [1, 5] | EC50 [2, 6] | EC50 [3] | Blood free fatty acid reduction (%) ([4]; 30 mg/kg/day) | Blood sugar reduction (%) ([4]; 30 mg/kg/day) | Blood triglycerides reduction (%) ([4]; 30 mg/kg/day) | EC50 [1] | EC50 [2] | Blood free fatty acid reduction (%) ([4]; 1 mg/kg/day (*)) | Blood sugar reduction (%) ([4]; 1 mg/kg/day (*)) | Blood triglycerides reduction (%) ([4]; 1 mg/kg/day (*)) |
| --- | --- | --- | --- | --- | --- | --- | --- | --- | --- | --- | --- |
| COc1ccc(CC(OC(C)C)C(=O)O)cc1C(=O)NCc1ccc(C(F)(F)F)cc1 (centres unmarked) [Example 2d), 2-Isopropoxy-3-(4-methoxy-3-({[4-(trifluoromethyl)benzyl]amino}carbonyl)phenyl)propanoic acid] | 2510 nM | 80 nM | 382 nM | 46.7% | 44.6% | 71.6% |  |  |  |  |  |
| COc1ccc(CC(OC(C)(C)C)C(=O)O)cc1C(=O)NCc1ccc(C(F)(F)F)cc1 (centres unmarked) [Example 3d), 2-tert-Butoxy-3-(4-methoxy-3-({[4-(trifluoromethyl)benzyl]amino}carbonyl)phenyl)propanoic acid] | 5070 nM | 87 nM | 217 nM | 47% | 27.5% | 63.8% |  |  |  |  |  |
| CCC(Cc1ccc(OC)c(C(=O)NCc2ccc(C(F)(F)F)cc2)c1)C(=O)O (centres unmarked) [Example 5d), 2-[4-Methoxy-3-({[4-(trifluoromethyl)benzyl]amino}carbonyl)benzyl)butanoic acid] |  |  |  | 65.5% | 53.6% | 58.8% | 789 nM | 394 nM |  |  |  |
| CCCOC(Cc1ccc(OC)c(C(=O)NCc2ccc(C(F)(F)F)cc2)c1)C(=O)O (centres unmarked) [Example 9d), 3-[4-methoxy-3-({[4-(trifluoromethyl)benzyl]amino}carbonyl)phenyl]-2-propoxypropanoic acid] | > 30000 nM | 701 nM | 746 nM | 62.9% | 46.1% | 80.4% |  |  |  |  |  |
| CCC(Cc1ccc(OC)c(NC(=O)Cc2ccc(C(F)(F)F)c(F)c2)c1)C(=O)O (centres unmarked) [Example 18d), 2-(4-Methoxy-3-{[2-(3-fluoro-4-trifluoromethylphenyl)acetyl]amino}benzyl)butanoic acid] | 8050 nM | 162 nM | > 10000 nM |  |  |  |  |  |  |  |  |
| COc1ccc(C[C@H](OC(C)C)C(=O)O)cc1CNC(=O)c1ccc(C(F)(F)F)cc1F [Example 36g), (2S)-3-[3-([2-fluoro-4-(trifluoromethyl)benzoyl]aminomethyl)-4-methoxyphenyl]-2-isopropoxypropanoic acid] | 37 nM | 12 nM | 47 nM |  |  |  |  |  | 54.0% | 51.5% | 55.2% |
| COc1ccc(C[C@H](OC(C)C)C(=O)O)cc1CNC(=O)c1ccc(Cl)cc1Cl [Example 37e), (2S)-3-[3-([2,4-dichlorobenzoyl]aminomethyl)-4-methoxyphenyl]-2-isopropoxypropanoic acid] | 432 nM | 28 nM | 16 nM |  |  |  |  |  | 70.2% | 48.1% | 68.3% |
